Data published in patent US9822157B2 (priority 2013, dated 2017).
Where two headings read alike, the source gives them in different places.

Molecular target: T1, human ferroportin (Homo sapiens, UniProt Q9NP59)
T1 sequence (Q9NP59 1-571): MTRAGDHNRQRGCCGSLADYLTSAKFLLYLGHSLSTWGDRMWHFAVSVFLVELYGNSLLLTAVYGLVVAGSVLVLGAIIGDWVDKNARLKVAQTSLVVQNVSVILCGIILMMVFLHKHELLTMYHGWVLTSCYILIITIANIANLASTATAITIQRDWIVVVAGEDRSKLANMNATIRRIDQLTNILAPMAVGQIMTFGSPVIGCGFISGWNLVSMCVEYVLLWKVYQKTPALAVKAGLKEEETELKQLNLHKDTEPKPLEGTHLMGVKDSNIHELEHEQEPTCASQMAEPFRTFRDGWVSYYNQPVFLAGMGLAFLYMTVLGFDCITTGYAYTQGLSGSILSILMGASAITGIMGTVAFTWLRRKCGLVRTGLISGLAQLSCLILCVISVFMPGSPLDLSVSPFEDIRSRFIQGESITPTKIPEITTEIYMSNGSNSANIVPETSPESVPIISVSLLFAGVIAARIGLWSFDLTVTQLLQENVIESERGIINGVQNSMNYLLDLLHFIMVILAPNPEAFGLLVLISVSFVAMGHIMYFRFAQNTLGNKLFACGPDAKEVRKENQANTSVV
Assay type: cell-based
Conditions: for % Activity At 1 uM: at 1 uM peptide, monomers and disulphide-linked dimers
Excerpt: The cDNA encoding the human ferroportin (SLC40A1) was cloned from a cDNA clone from Origene (NM_014585). The DNA encoding the ferroportin was amplified by PCR using primers also encoding terminal restriction sites for subcloning, but without the termination codon. The ferroportin receptor was subcloned into a mammalian GFP expression vector containing a neomycin (G418) resistance marker in such that the reading frame of the ferroportin was fused in frame with the GFP protein. The fidelity of the DNA encoding the protein was confirmed by DNA sequencing. HEK293 cells were used for transfection of the ferroportin-GFP receptor expression plasmid. The cells were grown according to standard protocol in growth medium and transfected with the plasmids using Lipofectamine (manufacturer's protocol, Invitrogen). […] The cells were propagated and frozen in aliquots.
A retro inverse peptide is a peptide with a reversed sequence in all D amino acids. […] The EC50 of these reference compounds for ferroportin degradation was determined according to the activity assay described above.

[1] = Hepcidin analog peptides, read-out: Potency EC50
[2] = read-out: EC50 (n > 3), alanine scan of Compound 1
[3] = read-out: EC50 (nM) (n > 3), alanine scan of Compound 18
[4] = read-out: EC50 (nM) (n > 3), alanine scan of Compound 1
[5] = read-out: EC50 (n = 3), cells printed in μM, in vitro activity as in Example 2, peptide monomers and dimers dimerized through a single disulphide linkage, n = 3
[6] = read-out: EC50 (nM) (n = 3), in vitro activity as in Example 2, peptide monomers and dimers dimerized through a single disulphide linkage, n = 3

## (Isovaleric acid-DTHFPCIKF-NH2)2 [Compound 326]
  % Activity At 1 uM: 100%

## H-ATHFPCIIF-NH2 [Compound 284]
[1]
  EC50: > 1000 nM
[2]
  EC50: > 1000 nM

## H-ATHFPICIFGPRSKGWVCM-NH2 (cysteine pairing not given here) [Compound 33]
[1]
  EC50: 184 nM
[3]
  EC50: 184 nM

## H-DAHFPCIIF-NH2 [Compound 52]
[1]
  EC50: 388 nM
[4]
  EC50: 388 nM

## H-DTAFPCIIF-NH2 [Compound 283]
[1]
  EC50: 739 nM
[4]
  EC50: 739 nM

## H-DTAFPICIFGPRSKGWVCM-NH2 (cysteine pairing not given here) [Compound 60]
[1]
  EC50: 498 nM
[3]
  EC50: 498 nM

## H-DTHAPCIIF-NH2 [Compound 282]
Hepcidin analog peptides
  Potency EC50 (nM): Inactive
Alanine scan of Compound 1
  EC50 (nM) (n > 3): Not active

## H-DTHAPICIFGPRSKGWVCM-NH2 (cysteine pairing not given here) [Compound 38]
[1]
  EC50: 254 nM
[3]
  EC50: 254 nM

## H-DTHCPIAIF-NH2 [Compound 277]
Hepcidin analog peptides
  Potency EC50 (nM): Inactive
Cysteine replacement scan of Mini-Hepcidin derivatives
  EC50 (nM) (n > 3): Not active

## H-DTHFACIIF-NH2 [Compound 280]
[1]
  EC50: > 1000 nM
[2]
  EC50: > 1000 nM

## H-DTHFAICIFGPRSKGWVCM-NH2 (cysteine pairing not given here) [Compound 26]
[1]
  EC50: 147 nM
[3]
  EC50: 147 nM

## H-DTHFGCIIFGPRSKGWVCK-NH2 (cysteine pairing not given here) [Compound 123]
Hepcidin analog peptides
  Potency EC50 (nM): Inactive

## H-DTHFKCIIFGPRSKGWVCK-NH2 (cysteine pairing not given here) [Compound 131]
Hepcidin analog peptides
  Potency EC50 (nM): Inactive

## H-DTHFPCAIF-NH2 [Compound 279]
[1]
  EC50: > 1000 nM
[2]
  EC50: > 1000 nM

## H-DTHFPCIAF-NH2 [Compound 51]
[1]
  EC50: 382 nM
[4]
  EC50: 382 nM

## H-DTHFPCIEF-NH2 [Compound 287]
[1]
  EC50: > 1000 nM

## H-DTHFPCIEK-NH2 [Compound 310]
  % Activity At 1 uM: 0%
[5]
  EC50: > 1000 nM

## H-DTHFPCIF-NH2 [Compound 293]
  % Activity At 1 uM: 52%

## H-DTHFPCIFF-NH2 [Compound 56]
[1]
  EC50: 441 nM

## H-DTHFPCIIA-NH2 [Compound 278]
[1]
  EC50: > 1000 nM
[2]
  EC50: > 1000 nM

## H-DTHFPCIIFGPRARGWVCK-NH2 (cysteine pairing not given here) [Compound 87]
[1]
  EC50: > 1000 nM

## H-DTHFPCIIFGPRSKGWVCK-NH2 (cysteine pairing not given here) [Compound 86]
[1]
  EC50: > 1000 nM

## H-DTHFPCIIFGPRSKGWVCM-NH2 (cysteine pairing not given here) [Compound 21]
[1]
  EC50: 46 nM

## H-DTHFPCIIFGPRSRGVCK-NH2 (cysteine pairing not given here) [Compound 84]
[1]
  EC50: > 1000 nM

## H-DTHFPCIIFGPRSRGWRCK-NH2 (cysteine pairing not given here) [Compound 80]
[1]
  EC50: > 1000 nM

## H-DTHFPCIIFK-NH2 [Compound 55]
[1]
  EC50: 419 nM

## H-DTHFPCIIK-NH2 [Compound 304]
  % Activity At 1 uM: 55%
[5]
  EC50: > 1000 nM

## H-DTHFPCIIR-NH2 [Compound 305]
  % Activity At 1 uM: 62%
[5]
  EC50: > 1000 nM

## H-DTHFPCIKFF-NH2 [Compound 297]
  % Activity At 1 uM: 64%
[6]
  EC50: > 300 nM

## H-DTHFPCIKFGPRSKGWVCM-NH2 (cysteine pairing not given here) [Compound 136]
[1]
  EC50: 669 nM

## H-DTHFPCILF-NH2 [Compound 308]
  % Activity At 1 uM: 89%
[6]
  EC50: > 300 nM

## H-DTHFPCILK-NH2 [Compound 309]
  % Activity At 1 uM: 55%
[6]
  EC50: > 300 nM

## H-DTHFPCIRFGPRSRGWRCK-NH2 (cysteine pairing not given here) [Compound 82]
[1]
  EC50: > 1000 nM

## H-DTHFPCIRFGPRSRGWVCK-NH2 (cysteine pairing not given here) [Compound 81]
[1]
  EC50: > 1000 nM

## H-DTHFPCISFGPRSKGWVCK-NH2 (cysteine pairing not given here) [Compound 101]
[1]
  EC50: > 1000 nM
